For seven compounds, TGI and GI50 results are on record in PubChem BioAssay (NCI).

Test systems include 786-0 renal; COLO 205 colon; HL-60(TB) leukemia; MDA-N; NCI-H522 lung; SF-295 CNS; SK-MEL-5 melanoma; SNB-19 CNS; SR leukemia; UACC-62 melanoma; UO-31 renal.
What all share (assay): NCI-60 cell line screen, 48 h

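Where inhibition never reached the appropriate level, the endpoint shown equals the highest concentration tested. Otherwise, values were interpolated linearly from a five-concentration, 48-hour dose response in 96-well plates. Here, GI50 denotes the concentration required for 50% inhibition of growth. TGI is the concentration that stops growth completely.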 A value given as a limit tells only on which side of the number the result lay.

Turning to `O=c1oc2ccccc2cc1-c1cn2cc(Cl)ccc2n1`, the TGI in the experiment with 786-0 renal was 8.95 µM; in the experiment on COLO 205 colon, > 50.3 µM; in the experiment with HL-60(TB) leukemia, > 61.7 µM; in the experiment on MDA-N, 0.428 µM; in the experiment with NCI-H522 lung, 0.722 µM; in the experiment with SF-295 CNS it was 5.36 µM. Besides, the TGI in the experiment on SK-MEL-5 melanoma is 19.1 µM; with SNB-19 CNS, 3.66 µM; in the experiment with SR leukemia, > 39.2 µM; in the experiment on UACC-62 melanoma it was 0.898 µM; in the experiment with UO-31 renal, 6.79 µM.
In the case of `O=c1c2cc(I)ccc2nc(-c2cccs2)n1-c1ccc(O)cc1`, the TGI was found to be 29.8 µM in the experiment with 786-0 renal; 36.1 µM in the experiment with COLO 205 colon; 36.7 µM with HL-60(TB) leukemia; 62.8 µM in the experiment on MDA-N; 30.1 µM with NCI-H522 lung; 27.4 µM in the experiment with SF-295 CNS. The TGI was 24.3 µM with SK-MEL-5 melanoma; 38.8 µM in the experiment on SNB-19 CNS; > 100 µM with SR leukemia; 26.9 µM in the experiment with UACC-62 melanoma; 25.4 µM in the experiment on UO-31 renal.
Consider `CCCC(=O)NC(Nc1ccc(S(=O)(=O)Nc2nc(C)cc(C)n2)cc1)(C(F)(F)F)C(F)(F)F`, for which the TGI in the experiment with 786-0 renal, in the experiment on COLO 205 colon, in the experiment with HL-60(TB) leukemia, with MDA-N, in the experiment on NCI-H522 lung and in the experiment with SF-295 CNS was > 100 µM in each case. In addition, the TGI in the experiment with SK-MEL-5 melanoma, with SNB-19 CNS, with SR leukemia, in the experiment with UACC-62 melanoma and with UO-31 renal was > 100 µM each time.
In the case of `COc1c(O)cc(O)c2c(=O)cc(-c3ccccc3)oc12`, the TGI was > 100 µM in the experiment with 786-0 renal; > 100 µM in the experiment with COLO 205 colon; 57.3 µM with HL-60(TB) leukemia; > 100 µM in the experiment with MDA-N; > 100 µM with NCI-H522 lung; > 100 µM with SF-295 CNS. The TGI in the experiment with SK-MEL-5 melanoma is > 100 µM; in the experiment with SNB-19 CNS, > 100 µM; in the experiment with SR leukemia, > 100 µM; in the experiment on UACC-62 melanoma, > 100 µM; with UO-31 renal, 6.04 µM.
Turning to `COc1ccc(NC(C)=O)cc1N1C(=O)/C(=C\c2cc(OC)c(OC)c(OC)c2)SC1c1ccccc1` (stereo not drawn), the TGI was > 100 µM with 786-0 renal; > 100 µM in the experiment on COLO 205 colon; 41 µM in the experiment with HL-60(TB) leukemia; 72.3 µM in the experiment on MDA-N; > 100 µM with NCI-H522 lung; > 100 µM in the experiment with SF-295 CNS. For the same compound, the TGI in the experiment on SK-MEL-5 melanoma, in the experiment on SNB-19 CNS, in the experiment on SR leukemia, in the experiment on UACC-62 melanoma and in the experiment on UO-31 renal was > 100 µM throughout.
With `O=C(O)c1nc(-c2ccccc2)[nH]c1C(=O)O`, the TGI in the experiment with 786-0 renal was found to be 22.5 µM; with COLO 205 colon, 31.7 µM; with HL-60(TB) leukemia it was 0.49 µM; in the experiment on MDA-N, 24.4 µM; in the experiment with NCI-H522 lung, 32 µM; in the experiment on SF-295 CNS it was 30.9 µM. In addition, the TGI in the experiment with SK-MEL-5 melanoma amounted to 28.6 µM; in the experiment on SNB-19 CNS, 25.1 µM; in the experiment on SR leukemia it was 2.36 µM; in the experiment with UACC-62 melanoma, 32.4 µM; with UO-31 renal, 24.8 µM.
Regarding `CC1(O)CC(=O)c2c(cc3ccc(-c4c5c(c(O)c6c(O)cccc46)C(=O)CC(C)(O)C5)c(O)c3c2O)C1` (stereo not drawn), the TGI is 7.64 µM in the experiment with 786-0 renal; 0.158 µM in the experiment with COLO 205 colon; 0.772 µM in the experiment on HL-60(TB) leukemia; 14.2 µM in the experiment with MDA-N; 1.12 µM with NCI-H522 lung; 0.874 µM in the experiment with SF-295 CNS. Further, the TGI in the experiment with SK-MEL-5 melanoma was 0.495 µM; in the experiment with SNB-19 CNS it was 4.37 µM; in the experiment on SR leukemia, 7.06 µM; with UACC-62 melanoma, > 100 µM; in the experiment on UO-31 renal it was 0.726 µM. Further, the GI50 with COLO 205 colon is 0.0361 µM.
